The structures appear in SMILES notation.

What is called inhibition is the change of the read-out against control, counted positive when it falls.

In the test the target is T1, His-hMAGL (recombinant polyhistidine tagged human MAGL protein) (Homo sapiens, UniProt Q99685).
T1 construct: made in house; host or cells: E. coli BL21(DE3)
T1 sequence (Q99685 1-303): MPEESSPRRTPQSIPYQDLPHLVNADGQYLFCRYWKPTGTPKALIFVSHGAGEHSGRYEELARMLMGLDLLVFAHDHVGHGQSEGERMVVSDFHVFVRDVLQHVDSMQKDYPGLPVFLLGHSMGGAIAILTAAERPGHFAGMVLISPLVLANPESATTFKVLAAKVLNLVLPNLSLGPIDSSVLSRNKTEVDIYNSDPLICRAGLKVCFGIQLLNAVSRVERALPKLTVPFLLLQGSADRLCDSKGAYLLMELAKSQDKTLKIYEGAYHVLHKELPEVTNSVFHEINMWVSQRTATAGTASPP
The test is described as follows: Measurement of MAGL inhibitory activity (arachidonic acid production from 2-arachidonylglycerol, RapidFire-mass spectrometry). The format is biochemical. The following applies: test compound 10 μM; MAGL inhibitory rate. The procedure: The His-hMAGL obtained above was diluted with enzyme reaction buffer (10 mM Tris-HCl, pH 7.5, 1 mM EDTA, 0.025 (w/v) % Triton X-100, 0.01% Bovine serum albumin) to a concentration of 7.5 ng/mL. To each well of a 384 well assay plate (Greiner 781280) was added a solution (5 μL) of a test compound dissolved in dimethyl sulfoxide (DMSO), which was diluted with the above-mentioned enzyme reaction buffer, then His-hMAGL solution (5 μL) diluted to a concentration of 7.5 ng/mL was added, and the mixture was incubated at room temperature for 60 min. Thereafter, to each well was added 5 μL of 150 μM 2-arachidonylglycerol (Tocris Bioscience), and the mixture was incubated at room temperature for 10 min. Then, 10 μL of 2% formic acid (Wako Pure Chemical Industries, Ltd.) was added to stop the reaction. Furthermore, acetonitrile (50 μL) containing 3 μM arachidonic acid-d8 (Cayman Chemical Company) was added and the mixture was stirred.
The amount of arachidonic acid in the obtained enzyme reaction mixture was calculated by measuring by RapidFire-mass spectrometry and correcting by the amount of arachidonic acid-d8. High Throughput online solid phase extraction was performed using RapidFire 300™ system (Agilent Technologies, Inc.). Samples were loaded on SPE C4 cartridge (Agilent Technologies, Inc.) and desalted with 0.2 (v/v) % acetic acid (Wako Pure Chemical Industries, Ltd.) in ultrapure water/acetonitrile (70/30, v/v) at a flow rate of 1.5 mL/min, eluted at a flow rate of 0.5 mL/min with 0.2 (v/v) % acetic acid dissolved in acetonitrile/ultrapure water (90/10, v/v), and injected into the mass spectrometry part. The injection needle was washed with ultrapure water (500 millisecond) and acetonitrile (500 millisecond) to minimize carry-over. The suction time (injection loop 5 μL), load/cleansing time, elution time and re-equilibration time were adjusted to 300, 3000, 4250 and 1000 milliseconds, respectively, and the total cycle time was adjusted to about 10.0 seconds. The RapidFire300 system was controlled by RapidFire UI software version 3.6 (Agilent Technologies, Inc.).
The mass spectrometry of the resultant product was performed using API4000™ triple quadrupole mass spectrometer (AB SCIEX) equipped with an electrospray ion sauce (TurboIon Spray™) in a negative selected reaction monitoring (SRM) mode. The conditions of SRM are shown below. The parameters of the instrument were optimized as follows: capillary temperature 600° C., ion spray voltage −4.5 kV, collision gas 8, curtain gas 15 psi, ion source gas 1 60 psi, ion source gas 2 60 psi. The mass spectrometer was controlled by Analyst™ software version 1.5.1 (AB SCIEX). The peak area integration was analyzed using RapidFire integrator software version 3.6 (Agilent Technologies, Inc.).
MAGL inhibitory rate (%) was calculated according to the following calculation formula. (1-(arachidonic acid production amount of test compound addition group−arachidonic acid production amount of enzyme-free group)+(arachidonic acid production amount of test compound-free group−arachidonic acid production amount of enzyme-free group))×100

Turning to `Cc1ccc(COC[C@H]2C[C@@H](OC(=O)N3CC4(COC(=O)N4)C3)C2)cc1Cl` [Example 28, cis-3-(((3-chloro-4-methylbenzyl)oxy)methyl)cyclobutyl 6-oxo-7-oxa-2,5-diazaspiro[3.4]octane-2-carboxylate], the inhibition at 10 µM was found to be 100%.

With `Cc1cc(COC[C@H]2C[C@@H](OC(=O)N3CC4(COC(=O)N4)C3)C2)ccc1Cl` [Example 29, cis-3-(((4-chloro-3-methylbenzyl)oxy)methyl)cyclobutyl 6-oxo-7-oxa-2,5-diazaspiro [3.4]octane-2-carboxylate], the inhibition at 10 µM is 100%.

In the case of `O=C1NC2(CO1)CN(C(=O)O[C@H]1C[C@@H](COCc3ccc(F)cc3Cl)C1)C2` [Example 30, cis-3-(((2-chloro-4-fluorobenzyl)oxy)methyl)cyclobutyl 6-oxo-7-oxa-2,5-diazaspiro[3.4]octane-2-carboxylate], the inhibition at 10 µM was 100%.

On to `O=C1NC2(CO1)CN(C(=O)O[C@H]1C[C@@H](COCc3ccc(F)c(F)c3F)C1)C2` [Example 31, cis-3-(((2,3,4-trifluorobenzyl)oxy)methyl)cyclobutyl 6-oxo-7-oxa-2,5-diazaspiro[3.4]octane-2-carboxylate], for which the inhibition at 10 µM turned out to be 100%.

As for `O=C1NC2(CO1)CN(C(=O)O[C@H]1C[C@@H](COCc3cc(F)c(F)cc3F)C1)C2` [Example 32, cis-3-(((2,4,5-trifluorobenzyl)oxy)methyl)cyclobutyl 6-oxo-7-oxa-2,5-diazaspiro [3.4]octane-2-carboxylate], the inhibition at 10 µM amounted to 100%.

`O=C1NC2(CO1)CN(C(=O)O[C@H]1C[C@@H](COCc3c(F)cc(F)cc3F)C1)C2` [Example 33, cis-3-(((2,4,6-trifluorobenzyl)oxy)methyl)cyclobutyl 6-oxo-7-oxa-2,5-diazaspiro[3.4]octane-2-carboxylate]: the inhibition at 10 µM is 101%.

For the compound `O=C1NC2(CO1)CN(C(=O)O[C@H]1C[C@H](Oc3ccc(C(F)(F)F)cc3F)C1)C2` [Example 34, trans-3-(2-fluoro-4-(trifluoromethyl)phenoxy)cyclobutyl 6-oxo-7-oxa-2,5-diazaspiro[3.4]octane-2-carboxylate], the inhibition at 10 µM is 99%.

As to `O=C1NC2(CCN(C(=O)O[C@H]3C[C@@H](COc4ccc(F)c(F)c4F)C3)C2)CO1` (stereo partly drawn) [Example 35, cis-3-((2,3,4-trifluorophenoxy)methyl)cyclobutyl 2-oxo-3-oxa-1,7-diazaspiro[4.4]nonane-7-carboxylate], the inhibition at 10 µM turned out to be 100%.

Turning to `O=C1NC2(CO1)CN(C(=O)O[C@H]1C[C@@H](COCc3ccc(C(F)(F)F)cc3F)C1)C2` [Example 36, cis-3-(((2-fluoro-4-(trifluoromethyl)benzyl)oxy)methyl)cyclobutyl 6-oxo-7-oxa-2,5-diazaspiro[3.4]octane-2-carboxylate], the inhibition at 10 µM was 100%.

With `O=C1NC2(CO1)CN(C(=O)O[C@H]1CC[C@H](Oc3ccc(C(F)(F)F)cc3F)CC1)C2` [Example 37, trans-4-(2-fluoro-4-(trifluoromethyl)phenoxy)cyclohexyl 6-oxo-7-oxa-2,5-diazaspiro[3.4]octane-2-carboxylate], the inhibition at 10 µM was found to be 101%.

As to `O=C1NC2(CO1)CN(C(=O)O[C@H]1CC[C@@H](Oc3ccc(C(F)(F)F)cc3F)CC1)C2` [Example 38, cis-4-(2-fluoro-4-(trifluoromethyl)phenoxy)cyclohexyl 6-oxo-7-oxa-2,5-diazaspiro[3.4]octane-2-carboxylate], the inhibition at 10 µM is 102%.

Take `O=C1NC2(CO1)CN(C(=O)O[C@H]1C[C@H](Oc3ccc(F)c(F)c3F)C1)C2` [Example 39, trans-3-(2,3,4-trifluorophenoxy)cyclobutyl 6-oxo-7-oxa-2,5-diazaspiro[3.4]octane-2-carboxylate]: the inhibition at 10 µM worked out at 100%.

For `O=C1NC2(CO1)CN(C(=O)O[C@H]1C[C@@H](OCc3ccc(F)cc3F)C1)C2` [Example 40, cis-3-((2,4-difluorobenzyl)oxy)cyclobutyl 6-oxo-7-oxa-2,5-diazaspiro[3.4]octane-2-carboxylate], the inhibition at 10 µM is 100%.
